Measured values taken from PMC5618429, “Kempopeptin C, a Novel Marine-Derived Serine Protease Inhibitor Targeting Invasive Breast Cancer” (Marine Drugs, 2017).

Tests used:
MDA-MB-231 cells = test: Transwell migration assay; format: cell-based; settings: Homo sapiens, MDA-MB-231, 48 h
Protocol: The significance of our compounds in inhibiting matriptase and targeting its downstream cellular substrates was evaluated by examining the effect of kempopeptin C (3) on the migration of highly invasive breast cancer cells. The effect on migration was investigated by treating MDA-MB-231 cells with different concentrations of the test compound or solvent control for 48 h. Following 48 h, migrated cells were stained with crystal violet, and the number was counted under the microscope. […] To rule out that proteasome inhibition might be responsible for the migration inhibitory activity, the effect of kempopeptin C (3) on the trypsin-like activity of proteasomes was tested in vitro.
Figure 7 The effect of kempopeptin C (3) on the migration of MDA-MB-231. MDA-MB-231 were incubated for 48 h in the presence of different concentrations (0, 10 or 20 µM) of 3 and the effect was compared to the solvent control. The graph represents the number of migrated cells in each treatment group. The asterisks denote the significance of p ≤ 0.01 relative to the solvent control using the two-tailed unpaired t-test. Data are presented as the mean ± SD, n = 3.
The migration assays were performed using BD falcon cell culture inserts (353097; PET membrane, 8-µm pore size; Fisher Scientific; Waltham, MA, USA) in 24-well plates. […]

[1] = target: T1, recombinant human matriptase (Homo sapiens, UniProt Q9Y5Y6); test: In vitro cleavage of CDCP1 by matriptase (SDS-PAGE, silver stain); format: biochemical; settings: enzyme to substrate ratio 1:5, pH 9.0, 37 °C, 30 min and 2 h, 10‒0.01 µM inhibitor, qualitative
T1 construct: purchased R&D Systems 3946-SE-010
T1 sequence (Q9Y5Y6 615-855 limits assumed): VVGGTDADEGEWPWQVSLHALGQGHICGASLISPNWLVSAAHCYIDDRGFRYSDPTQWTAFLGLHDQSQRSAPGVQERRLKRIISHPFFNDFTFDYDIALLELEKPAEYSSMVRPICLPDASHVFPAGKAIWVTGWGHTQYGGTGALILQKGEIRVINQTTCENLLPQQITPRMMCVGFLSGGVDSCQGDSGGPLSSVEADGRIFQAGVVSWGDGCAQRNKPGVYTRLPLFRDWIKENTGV
From the text: Due to the significance of these proteases in cancer progression and metastasis, as well as their functional redundancy with respect to targeting overlapping substrates, we focused our studies on examining the effect of kempopeptin C (3) on the downstream cellular substrates of matriptase. Due to the limited amount of 3, our study aimed to provide a qualitative preliminary characterization of CDCP1 and Dsg-2 cleavage inhibition by kempopeptin C (3). […] CDCP1 is considered a potential prognostic marker with expression levels found to correlate with the recurrence and survival rate of cancer patients. […] The exact mechanism regulating the generation of the LMW fragment is poorly understood; however, there is evidence for the involvement of serine protease proteolytic activity. Several studies provided evidence for serine protease-mediated (trypsin, plasmin and matriptase) cleavage of CDCP1 [15, 38]. Therefore, we examined the ability of recombinant human matriptase to cleave CDCP1 in vitro and assessed the effect of kempopeptin C (3) on inhibiting/reducing this cleavage. Recombinant human matriptase was incubated with CDCP1 (final molar ratio 1:5) at different time points (30 min and 2 h) at 37 °C in the presence of varying concentrations of kempopeptin C (3) or solvent control (Figure 4A,B). […] LMW fragments were more readily detected at longer incubation times (2 h). […]

CCCC(=O)NC(C(=O)NC1C(=O)NC(CCCCN)C(=O)NC2CCC(O)N(C2=O)C(C(C)CC)C(=O)N(C)C(Cc2ccc(OC)c(Cl)c2)C(=O)NC(C(C)C)C(=O)OC1C)C(C)C (stereo not shown) [Kempopeptin C, kempopeptin C]
inhibition at 10 µM (MDA-MB-231 cells; MDA-MB-231, 10 µM): 37% | inhibition at 20 µM (MDA-MB-231 cells; MDA-MB-231, 20 µM): 60% | Inhibition of in vitro cleavage of CDCP1 by matriptase [1]: inhibit the cleavage | Inhibition of in vitro cleavage of CDCP1 by matriptase ([1]; listed as Kempopeptin C (3)): able to only minimize the cleavage at 10 µM
